Experimental data published in ChEMBL document CHEMBL4619735, “Design, synthesis and anti-influenza A virus activity of novel 2,4-disubstituted quinazoline derivatives” (Bioorg Med Chem Lett, 2020).
The source made the active and inactive calls. The calls are words filed in the database; no cut-off is given here.

These compounds were tested on Influenza A virus (assay: Antiviral activity against Influenza A virus A/WSN/33(H1N1) infected in human 293T cells assessed as inhibition of viral replication at 10 uM pretreated for 2 hrs followed by viral infection and measured after 24 hrs by Gaussia luciferase reporter gene assay). Settings: A/WSN/1933(H1N1), HEK-293T.
Type: functional, organism-based

SMILES	inhibition
O=C(COc1nc(N2CCCC2)nc2ccccc12)Nc1ccc2ccccc2c1	inactive
O=C(COc1nc(N2CCCC2)nc2ccccc12)Nc1nccs1	Active
O=C(NCCOc1nc(N2CCCC2)nc2ccccc12)C1CC1	Active
NCCOc1nc(N2CCCC2)nc2ccccc12	inactive
O=C(COc1nc(N2CCCC2)nc2ccccc12)NC12CC3CC(CC(C3)C1)C2	inactive
O=C(NCCOc1nc(N2CCc3ccccc3C2)nc2ccccc12)c1ccccc1	Active
O=C(NCCOc1nc(N2CCCC2)nc2ccccc12)c1ccccc1	Active
O=C(COc1nc(N2CCCC2)nc2ccccc12)NC1CC1	inactive
CCOc1ccccc1CNC(=O)COc1nc(N2CCCC2)nc2ccccc12	Active
O=C(NCCOc1nc(N2CCCC2)nc2ccccc12)C1CCCCC1	inactive
CC(=O)c1ccc(C(=O)NCCOc2nc(N3CCCC3)nc3ccccc23)cc1	inactive

These compounds were tested on Influenza A virus (assay: Antiviral activity against Influenza A virus A/WSN/33(H1N1) infected in human 293T cells pretreated for 2 hrs followed by viral infection and measured after 24 hrs by Gaussia luciferase reporter gene assay). Settings: A/WSN/1933(H1N1), HEK-293T.
Type: functional, organism-based

SMILES	IC50 [µM]
O=C(COc1nc(N2CCCC2)nc2ccccc12)Nc1nccs1	39.4
CN(C)c1nc(OCC(=O)Nc2ccccc2)c2ccccc2n1	3.7
O=C(NCCOc1nc(N2CCc3ccccc3C2)nc2ccccc12)c1ccccc1	4.19
O=C(NCCOc1nc(Cl)nc2ccccc12)c1ccccc1	48
O=C(NCCOc1nc(N2CCCC2)nc2ccccc12)c1cccs1	18.2
O=C(COc1nc(Cl)nc2ccccc12)NCc1ccccc1	26.5
O=C(NCCOc1nc(N2CCCC2)nc2ccccc12)c1ccc(C(F)(F)F)cc1	8.64
O=C(COc1nc(N2CCc3ccccc3C2)nc2ccccc12)NCc1ccccc1	17.7
O=C(O)COc1nc(N2CCCC2)nc2ccccc12	60.1
NC(=O)c1ncn([C@@H]2O[C@H](CO)[C@@H](O)[C@H]2O)n1 [RIBAVIRIN]	15.4
CCOC(=O)COc1nc(N2CCCC2)nc2ccccc12	16.6
CCOc1ccccc1CNC(=O)COc1nc(N2CCCC2)nc2ccccc12	17.7
COc1ccc(OC(=O)NCCOc2nc(N3CCCC3)nc3ccccc23)cc1	55.3

Each compound was assayed on Influenza A virus (assay: Potency index, ratio of ribavirin IC50 to test compound IC50 for antiviral activity against Influenza A virus A/WSN/33(H1N1) infected in human 293T cells pretreated for 2 hrs followed by viral infection and measured after 24 hrs by Gaussia luciferase reporter gene assay). Settings: not given.
Type: functional, A/WSN/1933(H1N1), HEK-293T

SMILES	Ratio IC50
CN(C)c1nc(OCC(=O)Nc2ccccc2)c2ccccc2n1	4.1
